Measured values as given in ChEMBL document CHEMBL1130448, “CETP inhibitory activity of ceramides, isolated from the gorgonian Acabaria Undulata” (Bioorg Med Chem Lett, 1997).
pIC50: −log10 of the molar value.

Biological target: T1, Cholesteryl ester transfer protein (Homo sapiens, UniProt P11597)
T1 sequence (P11597 whole entry): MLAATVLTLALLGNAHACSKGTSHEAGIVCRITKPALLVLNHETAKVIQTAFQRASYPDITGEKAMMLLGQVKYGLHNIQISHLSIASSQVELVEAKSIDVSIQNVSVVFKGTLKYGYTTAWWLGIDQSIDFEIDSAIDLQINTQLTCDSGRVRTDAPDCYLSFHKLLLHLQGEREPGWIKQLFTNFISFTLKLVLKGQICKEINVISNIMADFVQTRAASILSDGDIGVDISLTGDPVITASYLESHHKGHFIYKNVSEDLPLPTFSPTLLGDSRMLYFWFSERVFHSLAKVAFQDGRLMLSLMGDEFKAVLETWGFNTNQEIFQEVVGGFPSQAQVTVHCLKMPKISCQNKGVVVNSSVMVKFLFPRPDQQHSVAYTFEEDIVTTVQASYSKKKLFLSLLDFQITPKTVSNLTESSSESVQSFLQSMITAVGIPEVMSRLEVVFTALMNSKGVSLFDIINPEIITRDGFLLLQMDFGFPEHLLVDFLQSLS
Experiment: Compound was measured for its inhibitory activity against cholesteryl ester transfer protein (CETP)

| Structure (SMILES) | pIC50 |
| --- | --- |
| CCCCCCCCCCCCC/C=C/C(O)C(N)CO[C@H]1O[C@H](CO)[C@H](O)[C@H](O)[C@H]1O (stereo not given in full) | 4.71 |
| CC(C)CNC(=O)/C=C/[C@@H]1C[C@H]1[C@@H]1C[C@H]1[C@@H]1C[C@H]1[C@@H]1C[C@H]1[C@@H]1C[C@H]1/C=C/[C@@H]1C[C@H]1C | 4.60 |
| CCCCCCCCCCCCCCCC(=O)N[C@@H](CO)[C@H](O)/C=C/CC/C=C/CCCCCCCC(C)C | 4.06 |
| CCCCCCCCCCCCC/C=C/C(O)C(CO)N(C)C (stereo not given) | 5.20 |
| CCCCCCCCCCCCC/C=C/[C@@H](O)[C@H](CO)NC(=O)CCCCCCCCCCCCCCC | 4.18 |
| CCCCCCCCC/C=C/CC/C=C/[C@@H](O)[C@H](CO)NC(=O)CCCCCCCCCCCCCCC | 4.33 |
| CCCCCCC/C=C/C=C/CC/C=C/[C@@H](O)[C@H](CO)NC(=O)CCCCCCCCCCCCCCC | 4.24 |
| CCCCCCCCCCCCCCC[C@@H](O)[C@@H](N)CO (racemic) [DIHYDROSPINGOSINE] | 4.89 |
| CCCCCCCCCCCCC/C=C/[C@@H](O)[C@@H](N)CO [SPHINGOSINE] | 4.94 |
| CCCCCCCCCCCCC/C=C/[C@@H](O)[C@@H](N)COP(=O)([O-])OCC[N+](C)(C)C [SPHINGOSYLPHOSPHORYLCHLOLINE] | 3.80 |
